Experimental data reported in the supplement of paper PMC13380429.

Legend:
Caco-2 [1] = assay: drug sensitivity score (DSS) for viability; higher = more toxic; extreme values may be limits of the assay; details: 72 h
HepG2 [2] = assay: as above; details: 72 h
Vero E6 [3] = assay: as above; details: 72 h
Calu-3 [4] = assay: as above; details: 72 h
U2OS [5] = assay: as above; details: 72 h
[6] = test system: A549-ACE2 infected with SARS-CoV-2; assay: cell count relative to DMSO; higher = less toxic; details: 24 h
[7] = test system: A549-ACE2 infected with SARS-CoV-2; assay: morphology score (similarity to uninfected cells); higher = more like uninfected cells; details: 24 h
Caco-2 [8] = assay: relative viability EC50 (midpoint between 100% and the lowest measured viability); higher = less toxic; details: 72 h
HepG2 [9] = assay: as above; details: 72 h
Vero E6 [10] = assay: as above; details: 72 h
U2OS [11] = assay: as above; details: 72 h
A549-ACE2 [12] = assay: drug-induced phospholipidosis relative to tamoxifen; higher = more phospholipidosis
[13] = test system: A549-ACE2 infected with SARS-CoV-2; assay: SARS-CoV-2 infection rate relative to DMSO; higher = more infection; details: 24 h
Caco-2 [14] = assay: cell viability relative to DMSO; higher = less toxic; details: 72 h
HepG2 [15] = assay: as above; details: 72 h
Vero E6 [16] = assay: as above; details: 72 h
Calu-3 [17] = assay: as above; details: 72 h
U2OS [18] = assay: as above; details: 72 h
A549-ACE2 [19] = assay: phospholipidosis EC50; higher = less potent phospholipidosis inducer
Calu-3 [20] = assay: relative viability EC50 (midpoint between 100% and the lowest measured viability); higher = less toxic; details: 72 h

C=CCN(C)CCCCCCOc1ccc(C(=O)c2ccc(Br)cc2)c(F)c1 [Ro-48-8071]
Details	drug sensitivity score	relative viability EC50 [µM]
Caco-2 [1]	5.5	–
Caco-2 [8]	–	1.31
Calu-3 [4]	2.3	–
HepG2 [2]	4.6	–
HepG2 [9]	–	2.38
U2OS [5]	1.1	–
U2OS [11]	–	> 10
Vero E6 [3]	0.7	–
Vero E6 [10]	–	> 10

Details	SARS-CoV-2 infection rate [%]	cell count [%]	cell viability [%]	morphology score	phospholipidosis EC50 [µM]
A549-ACE2 [19], 24 h	–	–	–	–	3.35
A549-ACE2 [19], 48 h	–	–	–	–	4.65
A549-ACE2 [19], 72 h	–	–	–	–	5.61
Caco-2 [14], 1 nM	–	–	97.5	–	–
Caco-2 [14], 10 nM	–	–	101	–	–
Caco-2 [14], 100 nM	–	–	102	–	–
Caco-2 [14], 1000 nM	–	–	81.7	–	–
Caco-2 [14], 10000 nM	–	–	45.9	–	–
Calu-3 [17], 1 nM	–	–	95.1	–	–
Calu-3 [17], 10 nM	–	–	95.7	–	–
Calu-3 [17], 100 nM	–	–	97.4	–	–
Calu-3 [17], 1000 nM	–	–	99.7	–	–
Calu-3 [17], 10000 nM	–	–	55.3	–	–
HepG2 [15], 1 nM	–	–	104	–	–
HepG2 [15], 10 nM	–	–	98.3	–	–
HepG2 [15], 100 nM	–	–	92.1	–	–
HepG2 [15], 1000 nM	–	–	93.7	–	–
HepG2 [15], 10000 nM	–	–	34	–	–
U2OS [18], 1 nM	–	–	98.6	–	–
U2OS [18], 10 nM	–	–	102	–	–
U2OS [18], 100 nM	–	–	93.5	–	–
U2OS [18], 1000 nM	–	–	96	–	–
U2OS [18], 10000 nM	–	–	79	–	–
Vero E6 [16], 1 nM	–	–	104	–	–
Vero E6 [16], 10 nM	–	–	100	–	–
Vero E6 [16], 100 nM	–	–	100	–	–
Vero E6 [16], 1000 nM	–	–	94.6	–	–
Vero E6 [16], 10000 nM	–	–	84.5	–	–
[6], 0.3 µM	–	103	–	–	–
[6], 3 µM	–	114	–	–	–
[6], 10 µM	–	117	–	–	–
[6], 30 µM	–	70	–	–	–
[7], 0.3 µM	–	–	–	-0.04	–
[7], 3 µM	–	–	–	0.67	–
[7], 10 µM	–	–	–	0.73	–
[7], 30 µM	–	–	–	0.1	–
[13], 0.3 µM	102	–	–	–	–
[13], 3 µM	59	–	–	–	–
[13], 10 µM	25	–	–	–	–
[13], 30 µM	38	–	–	–	–

drug-induced phospholipidosis [%], A549-ACE2 [12]
Details	0.3 µM	0.833333 µM	3.33333 µM	6.66667 µM	10 µM	30 µM
24 h	2.62	7.33	44.1	86.2	90.2	82
48 h	5.45	7.84	36.4	96.4	115	–
72 h	4.46	5.92	27.7	95.3	127	–

COc1ccc(NC(=O)c2ccc(-c3ccc(-c4noc(C)n4)cc3C)cc2)cc1N1CCN(C)CC1
Details	drug sensitivity score	relative viability EC50 [µM]
Caco-2 [1]	4	–
Caco-2 [8]	–	2.36
Calu-3 [4]	5	–
Calu-3 [20]	–	3.27
HepG2 [2]	4.2	–
HepG2 [9]	–	3.38
U2OS [5]	2.5	–
Vero E6 [3]	4.2	–
Vero E6 [10]	–	2.79

Details	SARS-CoV-2 infection rate [%]	cell count [%]	cell viability [%]	morphology score	phospholipidosis EC50 [µM]
A549-ACE2 [19], 24 h	–	–	–	–	0.719
A549-ACE2 [19], 48 h	–	–	–	–	0.984
A549-ACE2 [19], 72 h	–	–	–	–	1.27
Caco-2 [14], 1 nM	–	–	105	–	–
Caco-2 [14], 10 nM	–	–	92.5	–	–
Caco-2 [14], 100 nM	–	–	98.8	–	–
Caco-2 [14], 1000 nM	–	–	94.4	–	–
Caco-2 [14], 10000 nM	–	–	42.8	–	–
Calu-3 [17], 1 nM	–	–	110	–	–
Calu-3 [17], 10 nM	–	–	109	–	–
Calu-3 [17], 100 nM	–	–	99.2	–	–
Calu-3 [17], 1000 nM	–	–	102	–	–
Calu-3 [17], 10000 nM	–	–	7.9	–	–
HepG2 [15], 1 nM	–	–	97.5	–	–
HepG2 [15], 10 nM	–	–	109	–	–
HepG2 [15], 100 nM	–	–	98.9	–	–
HepG2 [15], 1000 nM	–	–	103	–	–
HepG2 [15], 10000 nM	–	–	19.1	–	–
U2OS [18], 1 nM	–	–	103	–	–
U2OS [18], 10 nM	–	–	102	–	–
U2OS [18], 100 nM	–	–	106	–	–
U2OS [18], 1000 nM	–	–	99.3	–	–
U2OS [18], 10000 nM	–	–	54.2	–	–
Vero E6 [16], 1 nM	–	–	106	–	–
Vero E6 [16], 10 nM	–	–	101	–	–
Vero E6 [16], 100 nM	–	–	105	–	–
Vero E6 [16], 1000 nM	–	–	96.6	–	–
Vero E6 [16], 10000 nM	–	–	31.6	–	–
[6], 0.1 µM	–	97	–	–	–
[6], 0.3 µM	–	104	–	–	–
[6], 1 µM	–	109	–	–	–
[6], 3 µM	–	117	–	–	–
[7], 0.1 µM	–	–	–	-0.16	–
[7], 0.3 µM	–	–	–	0.15	–
[7], 1 µM	–	–	–	0.46	–
[7], 3 µM	–	–	–	0.78	–
[13], 0.1 µM	106	–	–	–	–
[13], 0.3 µM	99	–	–	–	–
[13], 1 µM	85	–	–	–	–
[13], 3 µM	31	–	–	–	–

drug-induced phospholipidosis [%], A549-ACE2 [12]
Details	0.3 µM	0.833333 µM	3.33333 µM	6.66667 µM	10 µM	30 µM
24 h	2.12	35	61.8	56.7	35.2	28.3
48 h	4.59	17.3	79.1	76.8	56.3	–
72 h	4.03	12.8	79.8	80.8	–	–

CCCCCCCCNC(C)C(O)c1ccc(SC(C)C)cc1 (stereo unspecified) [suloctidil]
Details	drug sensitivity score	relative viability EC50 [µM]
Caco-2 [1]	0	–
Caco-2 [8]	–	> 10
Calu-3 [4]	11.1	–
Calu-3 [20]	–	1.12
HepG2 [2]	0	–
HepG2 [9]	–	> 10
U2OS [5]	2.4	–
Vero E6 [3]	0	–
Vero E6 [10]	–	> 10

Details	SARS-CoV-2 infection rate [%]	cell count [%]	cell viability [%]	morphology score	phospholipidosis EC50 [µM]
A549-ACE2 [19], 24 h	–	–	–	–	7.11
A549-ACE2 [19], 48 h	–	–	–	–	9.12
A549-ACE2 [19], 72 h	–	–	–	–	12.5
Caco-2 [14], 1 nM	–	–	105	–	–
Caco-2 [14], 10 nM	–	–	97.3	–	–
Caco-2 [14], 100 nM	–	–	99.4	–	–
Caco-2 [14], 1000 nM	–	–	101	–	–
Caco-2 [14], 10000 nM	–	–	92.6	–	–
Calu-3 [17], 1 nM	–	–	99.4	–	–
Calu-3 [17], 10 nM	–	–	97.1	–	–
Calu-3 [17], 100 nM	–	–	107	–	–
Calu-3 [17], 1000 nM	–	–	57	–	–
Calu-3 [17], 10000 nM	–	–	-0.5	–	–
HepG2 [15], 1 nM	–	–	98.7	–	–
HepG2 [15], 10 nM	–	–	109	–	–
HepG2 [15], 100 nM	–	–	98.5	–	–
HepG2 [15], 1000 nM	–	–	119	–	–
HepG2 [15], 10000 nM	–	–	102	–	–
U2OS [18], 1 nM	–	–	98.2	–	–
U2OS [18], 10 nM	–	–	95	–	–
U2OS [18], 100 nM	–	–	99.7	–	–
U2OS [18], 1000 nM	–	–	95.5	–	–
U2OS [18], 10000 nM	–	–	64.5	–	–
Vero E6 [16], 1 nM	–	–	93.8	–	–
Vero E6 [16], 10 nM	–	–	98.3	–	–
Vero E6 [16], 100 nM	–	–	93	–	–
Vero E6 [16], 1000 nM	–	–	98.3	–	–
Vero E6 [16], 10000 nM	–	–	97.4	–	–
[6], 0.3 µM	–	102	–	–	–
[6], 3 µM	–	112	–	–	–
[6], 10 µM	–	122	–	–	–
[6], 30 µM	–	65	–	–	–
[7], 0.3 µM	–	–	–	0.02	–
[7], 3 µM	–	–	–	0.31	–
[7], 10 µM	–	–	–	0.74	–
[7], 30 µM	–	–	–	0.13	–
[13], 0.3 µM	99	–	–	–	–
[13], 3 µM	83	–	–	–	–
[13], 10 µM	26	–	–	–	–
[13], 30 µM	25	–	–	–	–

drug-induced phospholipidosis [%], A549-ACE2 [12]
Details	0.3 µM	0.833333 µM	3.33333 µM	6.66667 µM	10 µM	30 µM
24 h	2.27	1.81	10.5	42.2	60	84.3
48 h	4.05	0.83	9.1	35.5	57	95.6
72 h	3.93	-1.43	8.76	31.3	53.9	114
